According to the supplement of paper PMC12613149:

What was measured:
[1] = collision cross section (TIMS, N2 drift gas) of the primary ion; higher = larger gas-phase ion size
[2] = reversed-phase LC retention time (C18, 15 min MeOH gradient); higher = more hydrophobic / later elution
[3] = ionization mode: ESI+, ion species: [M+H]+
[4] = ionization mode: ESI+, ion species: [M]+
[5] = ionization mode: ESI-, ion species: [M-H]-

Compound	collision cross section [1, 3] [Å²]	reversed-phase LC retention time [2, 3] [min]	collision cross section [1, 4] [Å²]	reversed-phase LC retention time [2, 4] [min]	collision cross section [1, 5] [Å²]	reversed-phase LC retention time [2, 5] [min]
C#C[C@]1(O)CC[C@H]2[C@@H]3CCC4=CC(=O)CC[C@@H]4[C@H]3CC[C@@]21C [Norethindrone]	177.62	13.9				
CCCCCCCCCCCCCC[N+](C)(C)C [Tetradecyltrimethylammonium]			187.45	16.5		
O=c1[nH]c2c(c(=O)n1C1CCCCC1)CCC2 [Lenacil]	157.13	12.8				
COc1ccc(Cl)cc1C(=O)NCCc1ccc(S(=O)(=O)NC(=O)NC2CCCCC2)cc1 [Glibenclamide]	208.58	14.8			214.7	14
O=S(=O)(O)CCC(F)(F)C(F)(F)C(F)(F)C(F)(F)C(F)(F)C(F)(F)F [6:2 fluorotelomer sulfonic acid]					168.03	14.7
[O-][n+]1cccc2ccccc21 [Quinoline N-oxide]	124.14	7.48				
CN1CCN(C2=Nc3cc(Cl)ccc3Nc3ccccc32)CC1 [Clozapine]	179.65	11.6				
CCOP(=O)(OCC)OC(=CCl)c1ccc(Cl)cc1Cl [Chlorfenvinphos]	169.3	15.7				
O=C(NC(CO)C(O)c1ccc([N+](=O)[O-])cc1)C(Cl)Cl (stereo unspecified) [Chloramphenicol]					165.75	9.83
CCCCCCCCCCOS(=O)(=O)O [Decylsulfate]					159.61	14.9
Clc1cccc(Cl)c1NC1=NCCN1 [Clonidine]	145.06	6.83			145.07	9.84
CNCCC(Oc1cccc2ccccc12)c1cccs1 (stereo unspecified) [Duloxetine]	171.35	13				
O=c1c(-c2ccc(O)cc2)coc2cc(O)cc(O)c12 [Genistein]	160.2	11.9			159.59	10.2
CCCCC(CC)COC(=O)c1ccc(C(=O)OCC(CC)CCCC)c(C(=O)OCC(CC)CCCC)c1 (stereo unspecified) [Tris(2-ethylhexyl)trimellitate]	258.93	20.9				
CO/N=C(\C(=O)OC)c1ccccc1COc1ccccc1C [Kresoxim-methyl]	167.17	15.4				
C#CCOc1ccc(CCNC(=O)C(OCC#C)c2ccc(Cl)cc2)cc1OC (stereo unspecified) [Mandipropamid]	194.91	14.2			195.62	14.6
CCCCc1oc2ccccc2c1C(=O)c1cc(I)c(OCCN(CC)CC)c(I)c1 [Amiodarone]	228.68	16.5				
CCCN(CCC)CCc1cccc2c1CC(=O)N2 [Ropinirole]	163.51	7.95				
NC(=NCCCCCCN=C(N)N=C(N)Nc1ccc(Cl)cc1)N=C(N)Nc1ccc(Cl)cc1 [Chlorohexidine]	224.29	12.4				
CC(COc1ccc(Oc2ccccc2)cc1)Oc1ccccn1 (stereo unspecified) [Pyriproxyfen]	184.89	16.9				
Cc1nnc(-c2ccccc2)c(=O)n1N [Metamitron]	143.85	8.87				

Compound	collision cross section [1, 3] [Å²]	reversed-phase LC retention time [2, 3] [min]	collision cross section [1, 4] [Å²]	reversed-phase LC retention time [2, 4] [min]	collision cross section [1, 5] [Å²]	reversed-phase LC retention time [2, 5] [min]
Cc1ccc(OP(=O)(Oc2ccc(C)cc2)Oc2ccc(C)cc2)cc1 [Tricresylphosphate]	190.01	17.2				
O=C(Nc1ccc(Cl)cc1)Nc1ccc(Cl)c(Cl)c1 [Triclocarban]	173.98	16.2			167.79	16.6
O=C1Nc2ccc(Cl)cc2C(c2ccccc2Cl)=NC1O (stereo unspecified) [Lorazepam]	168.84	13.2			167.96	13.5
CCCC[N+](CCCC)(CCCC)CCCC [Tetrabutylammonium]			167.79	11		
CO/C=C(/C(=O)O)c1ccccc1Oc1cc(Oc2ccccc2C#N)ncn1 [Azoxystrobin acid]	190.75	13			188.36	11.5
COCCN(C(=O)CCl)c1c(C)cccc1C [Dimethachlor]	152.09	13.3				
CC(=O)O[C@]1(C(C)=O)CC[C@H]2[C@@H]3C=C(C)C4=CC(=O)CC[C@]4(C)[C@H]3CC[C@@]21C [Megestrol-17-acetate]	198.3	15.2				
CCCCCCCCCCCCS(=O)(=O)O [1-Dodecanesulfonic acid]					165.42	16.1
CCN1CCCC1CNC(=O)c1cc(S(=O)(=O)CC)c(N)cc1OC (stereo unspecified) [Amisulpride]	193.4	7.75				
CC(C)N(C(=O)CCl)c1ccccc1 [Propachlor]	143.81	13				
Fc1ccc(C2(Cn3cncn3)OC2c2ccccc2Cl)cc1 (stereo unspecified) [Epoxiconazole]	176.09	14.9				
CCNC(=O)C(C)Oc1cccc2ccccc12 (stereo unspecified) [Desethyl-napropamide]	159.85	14				
Cc1cc(Cc2cc(C)cc(C(C)(C)C)c2O)c(O)c(C(C)(C)C)c1 [2,2'-Methylenebis(6-tert-butyl-p-cresol)]					196.67	18.8
CCC1OC(=O)C(C)C(OC2CC(C)(OC)C(O)C(C)O2)C(C)C(OC2OC(C)CC(N(C)C)C2O)C(C)(OC)CC(C)C(=O)C(C)C(O)C1(C)O (stereo unspecified) [Clarithromycin]	267.43	13.9				
CSc1nc(NC2CC2)nc(NC(C)(C)C)n1 [Irgarol]	163.17	14.4				
CN(C)C(=O)Nc1ccc(Cl)c(Cl)c1 [1-(3,4-Dichlorophenyl)-3,3-dimethylurea]	149.81	13			146.03	13.2
CCCCCCCCCCCCCCCC(=O)NCCO [Palmitoylethanolamide]	193.35	18.3				
NC(=O)N1c2ccccc2C=Cc2cc(O)ccc21 [2-Hydroxycarbamazepine]	155.33	10.3				
CN(C(=O)CO)c1c(I)c(C(=O)NCC(O)CO)c(I)c(C(=O)NCC(O)CO)c1I (stereo unspecified) [Iomeprol]	216.41	5.52			210.1	5.58
COC(=O)[C@H](C)N(C(=O)Cc1ccccc1)c1c(C)cccc1C [Benalaxyl]	173.08	15.6				
CCNc1nc(Cl)nc(NC(C)(C)C)n1 [Terbuthylazine]	153.3	14				

Compound	collision cross section [1, 3] [Å²]	reversed-phase LC retention time [2, 3] [min]	collision cross section [1, 4] [Å²]	reversed-phase LC retention time [2, 4] [min]	collision cross section [1, 5] [Å²]	reversed-phase LC retention time [2, 5] [min]
Nc1ccc2c(n1)[nH]c1ccccc12 [2-Amino-9H-pyrido[2,3-b]indole (AalphaC)]					135.27	12
Cc1cc(=O)oc2cc(N)ccc12 [7-Amino-4-methylcoumarin]	131.77	9.22				
Cn1c(=O)c2[nH]cnc2n(C)c1=O [Theophyllin]	135.99	6.64				
Cc1ccc(-c2cc(C(F)(F)F)nn2-c2ccc(S(N)(=O)=O)cc2)cc1 [Celecoxib]	189.33	15.1			191.15	15.5
CC(=O)[C@@]1(O)CC[C@H]2[C@@H]3C=C(Cl)C4=CC(=O)[C@@H]5C[C@@H]5[C@]4(C)[C@H]3CC[C@@]21C [Cyproterone]	190.49	14.6			190.87	14.9
c1ccc2c(c1)[nH]c1ncccc12 [Carboline]	132.73	11.7			129.53	12.9
CC1(C)O[C@@H]2C[C@H]3[C@@H]4C[C@H](F)C5=CC(=O)C=C[C@]5(C)[C@@]4(F)[C@@H](O)C[C@]3(C)[C@]2(C(=O)CO)O1 [Fluocinolone acetonide]					198.83	13.7
Nc1ccc(Cc2ccc(N)cc2)cc1 [4,4'-Methylenedianiline]	162.72	5.68				
COCCCCC(=NOCCN)c1ccc(C(F)(F)F)cc1 [Fluvoxamine]	178.07	13.3				
OC(Cn1cncn1)(Cn1cncn1)c1ccc(F)cc1F [Fluconazole]	166.92	9.38			158.78	9.54
O=C(O)CCCCCCCC(=O)O [Azelaic acid]					138.44	0.98
Clc1ccc2c(c1)CCc1cccnc1C2=C1CCNCC1 [Desloratadine]	176.94	11.7				
Cn1cc(C(=O)Nc2ccccc2-c2cc(F)c(F)c(F)c2)c(C(F)F)n1 [Fluxapyroxad]	178.14	14.4			180.37	14.7
Nc1ccc(Cc2ccc(N)c(Cl)c2)cc1Cl [2,2'-dichloro-4,4'-methylenedianiline]	173.31	13.8				
CCC(C)(c1ccc(O)cc1)c1ccc(O)cc1 [Bisphenol B]					165.01	14.3
CC(C)CC(C)(O)C#CC(C)(O)CC(C)C (stereo unspecified) [TMDD]	168.69	16.4				
Cn1c(N)nc2ncc(-c3ccccc3)cc21 [2-Amino-1-methyl-6-phenylimidazo[4,5-b]pyridine (PhIP)]	152.56	9.5			152.05	12.1
CC1(C)CCC(Cc2ccc(Cl)cc2)C1(O)Cn1cncn1 (stereo unspecified) [Metconazole]	170.17	15.8				
Nc1nc2ccccc2[nH]1 [2-Aminobenzimidazole]	124.95	5.92				
Cc1nc(=O)c(-c2ccccc2)n[nH]1 [Metamitron-desamino]	139.91	8.87			137.07	6.92
